Where “and” joins values, the source holds several entries; their conditions need not be identical. Equal entries are not always repeated. Entries after “also recorded” stand apart in the source; their conditions may differ.
How the values were obtained:
[1] = system: elastase; settings: cited from earlier work
[2] = system: Wistar strain female and male rats; assay: Subacute toxicity, rats; assay type: in vivo, rat; settings: oral, 750, 7,500 and 37,500 or 75,000 EL. U/kg/day for 4 weeks
Text: (§1) Elastase was orally administered to Wistar strain female and male rats at dosages of 750, 7,500 and 37,500 or 75,000 EL. U/kg/day for 4 weeks, and to female and male beagle dogs at dosages of 900 or 4,500 EL. U/kg/day for 12 weeks.

[3] = system: female and male beagle dogs; assay: Subacute toxicity, dogs; assay type: in vivo, dog; settings: oral, 900 or 4,500 EL. U/kg/day for 12 weeks
Text: as §1

[4] = system: Wistar strain female and male rats; assay: Chronic toxicity, rats; assay type: in vivo, rat; settings: oral, 2,250, 5,700, 11,250 or 22,500 EL. U/kg/day for 24 weeks
Text: Elastase was orally administered to Wistar strain female and male rats at dosages of 2,250, 5,700, 11,250 or 22,500 EL. U/kg/day for 24 weeks.

[5] = system: pregnant mice; assay: Teratogenicity, mice; assay type: in vivo, mouse; settings: oral, 750, 7,500 or 75,000 EL. U/kg/day, 6 days
Text: (§2) Elastase was forcibly orally administered to pregnant mice and rats in the stage of organogenesis at dosages of 750, 7,500 or 75,000 EL. U/kg/day for 6 consecutive days. As a result, death, hindrance to growth and teratogenesis of the embryos were not observed, and there was no effect upon the morphological and functional differentiation of the newborn animals.

[6] = system: pregnant rats; assay: Teratogenicity, rats; assay type: in vivo, rat; settings: oral, 750, 7,500 or 75,000 EL. U/kg/day, 6 days
Text: as §2

[7] = system: gonarthralgia; assay: Clinical examples: effectiveness against gonarthralgia; assay type: in vivo, human
Text: (§3) The subjects included 18 patients (men 6 cases, women 12 cases, ages 57 to 88, average 70.9±8.2 years old) that were diagnosed negative as to rheumatoid arthrosis and were clinically diagnosed as suffering from gonarthrosis deformans. […] The distribution of the duration of gonarthralgia in the patients from the onset thereof was such that six cases fell into each of the periods of (1) three years or shorter, (2) four to five years, and (3) five years or longer.
(§4) The effectiveness of elastase against gonarthrosis deformans was evaluated by administering capsules containing 1,800 EL.U elastase at a daily dosage of 3 capsules per day to each patient for 8 weeks, and investigating the severity of gonarthralgia before administration, 4 weeks after administration, and 8 weeks after administration.
(§5) However, these patients had received and continued to receive during the test period antihypertensive agents, agents for improving cerebral circulation and other drugs for the treatment of their underlying diseases. However, the levels of these drugs in the patients' bodies remained unchanged from the day 8 weeks before the start of the test up to the last day of the test. During the tests, no patient received any other antiinflammatory, analgesic or steroid having the possible effect of palliation of arthralgia.

[8] = system: other types of arthralgia; assay: Clinical examples: effectiveness against other types of arthralgia and symptoms; assay type: in vivo, human
Text: as §3, §4, §5

[9] = system: human patients; assay: Clinical examples: side effects; assay type: in vivo; settings: for resolution of epigastric discomfort: after 4 weeks
Text: as §3, §4, §5

[10] = Absorption, blood concentration and fate of elastase after oral administration; assay type: in vivo
[11] = porcine elastase; cited from earlier work
[12] = system: lipoprotein; settings: cited from earlier work
[13] = system: lipid metabolism in the serum and tissues; arterial walls; settings: cited from earlier work
[14] = duration 3 years or shorter, 4 w
[15] = duration 3 years or shorter, 8 w
[16] = duration 5 years or longer, 4 w
[17] = duration 5 years or longer, 8 w
[18] = individual patient case (one line per case No. 1-18), 3 capsules of 1,800 EL.U per day
[19] = individual patient case (Table 2)

[Cl-].[Na+] [NaCl]
inhibition of elastase activity [1]: inhibited

N.N.O=S(=O)(O)O [(NH4)2 SO4]
inhibition of elastase activity [1]: inhibited

elastase: enzyme which specifically decomposes elastin, a water-insoluble scleroprotein; industrially produced by extraction from swine pancreas
Subacute toxicity: general physical condition, blood and urinary tests, morphological observations [2]: no noteworthy anomalous findings
Subacute toxicity: general physical condition, blood and urinary tests, morphological observations [3]: no noteworthy anomalous findings
Chronic toxicity: general physical condition, blood and urinary tests, morphological observations [4]: no anomalous findings
effect upon morphological and functional differentiation of the newborn animals [5]: no effect
death, hindrance to growth and teratogenesis of the embryos ([5]; organogenesis): not observed
effect upon morphological and functional differentiation of the newborn animals [6]: no effect
death, hindrance to growth and teratogenesis of the embryos ([6]; organogenesis): not observed
"ineffective" result, number ([7]; 4 to 5 year group): one
"ineffective" result, number ([7]; 5 years or longer group): one
result (case history) ([7]; Case 4, Case 8, Case 16, Case 13): markedly effective; also recorded: ineffective (when there was no effect)
pain in knee joints when administration was discontinued ([7]; Case 9): worsened
gonarthralgia after restart of administration ([7]; Case 9, restarted at beginning of third week): palliation of gonarthralgia
improvement, case history ([7]; Case 13, after either 4 weeks or 8 weeks): no improvement was recognized
difficulty with Japanese dancing, case history ([7]; Case 16, after 4 weeks): disappeared
knee pain, case history ([7]; after 4 weeks, Case 4, Case 8, Case 16): completely cleared up; also recorded: disappeared entirely
gonarthralgia in cases with other symptoms ([7]; all of these cases): palliated or cleared up
aggravated, number of cases [7, 14]: 0
effective, number of cases [7, 14]: 3
ineffective, number of cases [7, 14]: 0
markedly effective, number of cases [7, 14]: 3
rate of effectiveness [7, 14]: 100%
rate of effectiveness (cases/total) [7, 14]: 6/6
aggravated, number of cases [7, 15]: 0
effective, number of cases [7, 15]: 3
ineffective, number of cases [7, 15]: 0
markedly effective, number of cases [7, 15]: 3
rate of effectiveness [7, 15]: 100%
rate of effectiveness (cases/total) [7, 15]: 6/6
aggravated, number of cases ([7]; duration 4 to 5 years, 4 w): 0
effective, number of cases ([7]; duration 4 to 5 years, 4 w): 3
ineffective, number of cases ([7]; duration 4 to 5 years, 4 w): 1
markedly effective, number of cases ([7]; duration 4 to 5 years, 4 w): 2
rate of effectiveness ([7]; duration 4 to 5 years, 4 w): 83.3%
rate of effectiveness (cases/total) ([7]; duration 4 to 5 years, 4 w): 5/6
aggravated, number of cases ([7]; duration 4 to 5 years, 8 w): 0
effective, number of cases ([7]; duration 4 to 5 years, 8 w): 2
ineffective, number of cases ([7]; duration 4 to 5 years, 8 w): 1
markedly effective, number of cases ([7]; duration 4 to 5 years, 8 w): 3
rate of effectiveness ([7]; duration 4 to 5 years, 8 w): 83.3%
rate of effectiveness (cases/total) ([7]; duration 4 to 5 years, 8 w): 5/6
aggravated, number of cases [7, 16]: 0
effective, number of cases [7, 16]: 4
ineffective, number of cases [7, 16]: 1
markedly effective, number of cases [7, 16]: 1
rate of effectiveness [7, 16]: 83.3%
rate of effectiveness (cases/total) [7, 16]: 5/6
aggravated, number of cases [7, 17]: 0
effective, number of cases [7, 17]: 3
ineffective, number of cases [7, 17]: 1
markedly effective, number of cases [7, 17]: 2
rate of effectiveness [7, 17]: 83.3%
rate of effectiveness (cases/total) [7, 17]: 5/6
cases with gonarthralgia completely cleared up, number ([7]; duration greater than 5 years): two
overall rate of improvement ([7]; entire group of 18 patients): 88.9%
patients with distinct palliation or complete clearing of gonarthralgia, number ([7]; entire group of patients): sixteen
results of "aggravated" ([7]; entire group of patients): no results of "aggravated"
results of "ineffective", number ([7]; entire group of patients): two
Effect on arthralgia after 4 w. [7, 18]: + (effective) and ++ and - (ineffective)
Effect on arthralgia after 8 w. [7, 18]: + (effective) and ++ and - (ineffective)
persistent gonarthralgia ([7]; most of the patients, during term of administration, not informed of relation): considerably palliated or completely cleared up
results of "markedly effective", 8 weeks compared with 4 weeks ([7]; overall): somewhat higher after the 8 week period
rate of effectiveness ([7]; overall, 4 w): 88.9%
rate of effectiveness (cases/total) ([7]; overall, 4 w): 16/18
effective, number of cases ([7]; overall, 4 w, 18 cases): 10
markedly effective, number of cases ([7]; overall, 4 w, 18 cases): 6
rate of effectiveness (cases/total) ([7]; overall, 8 w): 16/18
rate of effectiveness / overall rate of improvement ([7]; overall, 8 w): 88.9%
rate of "effective" ([7]; overall, after 4 weeks): 55.6%
rate of "ineffective" ([7]; overall, after 4 weeks): 11.1%
rate of "markedly effective" ([7]; overall, after 4 weeks): 33.3%
rate of "aggravated" ([7]; overall, after 8 weeks): 0%
rate of "effective" ([7]; overall, after 8 weeks): 44.4% and 44.48%
rate of "ineffective" ([7]; overall, after 8 weeks): 11.1%
rate of "markedly effective" ([7]; overall, after 8 weeks): 44.4% and 44.48%
onset of perceived palliation or clearing of arthralgia ([7]; patients who showed improvement, after start of administration): at the beginning of the second week
morning stiffness in the fingers ([8]; Case 4, after 4 weeks): cleared up
lumbago ([8]; Case 5, during the term of administration): cleared up
cinesalgia in the left shoulder (periarthritis) ([8]; Case 6, during the term of administration): No change
anomalies of sensation in fingers ([8]; Cases 10 and 15): not cleared up
Miscellaneous [8, 19]: morning stiffness in hands cleared; also recorded: carpal tunnel syndrome not changed; also recorded: dancing eliminated
Miscellaneous: lumbago [8, 19]: cleared; also recorded: lumbago lasting
discontinuation of administration in cases with epigastric discomfort ([9]; 3 cases (conclusions)): not discontinued in any of these cases
epigastric discomfort, number of cases ([9]; 18 patients, 8 weeks): 3
epigastric discomfort, rate ([9]; 18 patients, 8 weeks): 16.7%
Miscellaneous: discontinuation and restart ([9]; Case 9 (Table 2)): administration discontinued after 2 w; also recorded: restarted because of worsened arthralgia
resolution of epigastric discomfort ([9]; Case 9, administration restarted): cleared up after 4 weeks
discontinuation of administration because of epigastric discomfort ([9]; Case 9, at the beginning of the second week): discontinued at the beginning of the second week
epigastric discomfort ([9]; Cases 3, 6 and 9, one to two weeks after administration began): suffered from epigastric discomfort for several days
resolution of epigastric discomfort ([9]; Cases 3 and 6): disappeared after 4 weeks
nausea, vomiting, exanthema or the like ([9]; all cases): In none of the cases
Side effect (transient epigastric discomfort) [9, 19]: transient
time of maximum concentration of elastase in the blood ([10]; after (oral) administration): 6 h
combination with blood proteins ([10]; in the blood): combines with α2 -macroglobulin and α1 -antitrypsin
area under the blood concentration curve versus dosage ([10]; oral): increases in proportion to the dosage
distribution ([10]; oral): distributed widely over all of the body tissues
excretion ([10]; oral): excreted into the urine
metabolism ([10]; oral): metabolized chiefly in the liver
isoelectric point [11]: 9.5±0.5 pH
optimal activation pH, particularly ([1]; N-α-benzoyl-L-alanine methyl ester as substrate): about 8.8
optimal activation pH ([1]; N-α-benzoyl-L-alanine methyl ester as substrate, range): 8 to 10
decomposition of N-α-benzoyl-L-alanine methyl ester, acetyl-L-trialanine-p-nitroanilide and elastin ([1]; porcine elastase): specifically decomposing
β-lipoproteinase activity and lipoprotein lipase activity [12]: confirmed
removal of denatured elastin, formation of fresh elastin, fat deposition, atherosclerosis ([13]; arterial walls): functions to remove denatured elastin from arterial walls and to promote formation of fresh elastin
effect on disturbance of lipid metabolism in the serum and tissues ([13]; in vivo): normalizing effect
elasticity and dilatability of arterial walls ([13]; in vivo): maintains and promotes

O=S(=O)([O-])[O-].[Cu+2] [CuSO4]
inhibition of elastase activity [1]: inhibited

[Cl-].[K+] [KCl]
inhibition of elastase activity [1]: inhibited

— patent US4446129A, “Method for treatment of arthrosis deformans with elastase” (Eisai Co., Ltd., priority 1982, dated 1984)
